Literature values, collected in patent US7045166B2, “Sweetener compositions containing fractions of inulin” (priority 1998, dated 2006).

Key:
[1] = artificial sweetener, general statement
[2] = relative to sucrose (sugar)

Structure (SMILES)	heat stability [1]	sweetness of an equivalent dose of sucrose [2] [times]
OC[C@H]1O[C@H](O[C@]2(CCl)O[C@H](CCl)[C@@H](O)[C@@H]2O)[C@H](O)[C@@H](O)[C@H]1Cl [Sucralose, sucralose]	heat stable	600
COC(=O)[C@H](Cc1ccccc1)NC(=O)[C@H](CC(=O)O)NCCC(C)(C)C [Neotane]	–	8000
